Where a name gives a salt, the structure may show the parent alone.
How the values were obtained:
Nitrobacter spp. = assay: Nitrite nitrogen in ammonium amended soil incubated at 25° C.; conditions: soil 25° C., 200 ppm N
Protocol: Determination of nitrite nitrogen and nitrate nitrogen in soil prepared in Example 1 above, which is amended with 200 ppm of nitrogen as aqueous ammonium sulfate, […], is determined using the nitrite and nitrate analysis of the American Organization of Analytical Chemists (AOAC pp. 653-655).

Nitrosomonas spp. = assay: Nitrification of ammonium in soil incubated at 25° C. (ammonium recovery, nitrate accumulation); conditions: soil 25° C.; for Concentration of nitrate nitrogen / Recovery of Ammonium Nitrogen: 200 ppm N
Protocol: In these evaluations, one hundred grams (100 g) of oven dry, silt loam field soil with low residual nitrogen is added to a 6×12 cm screw-capped glass jar for each sampling date to provide an optimum environment for nitrification.
Two replicates of each treatment-sampling date are established. The soil is adjusted to 50% water saturation with an aqueous solution of ammonium sulfate at 200 ppm N and the chemical to be tested as a nitrification inhibitor at rates of from 0.10 to 0.50 ppm.
Incubation is at either 25° C. or 38° C. for 0, 1, 2, 4, 7, 9, 12, 16 or 20 weeks. Inorganic N is extracted by adding 2M KCl (10:1 v/w) and shaking for one hour, allowing settling for fifteen minutes. A 10 ml aliquot from the supernatant is assayed for ammonium, nitrite and nitrate by standard steam distillation methods (AOAC, pp. 653-655). Nitrapyrin (0.5 ppm) is used as a nitrification inhibitor for comparison. Benzyl alcohol, acetone, and a non-N amended soil are run as controls and as a check on mineralization.
Nitrification: Ammonium recovery and nitrate accumulation are indicative of nitrification, and data obtained with test compounds are reported in Tables I and II.

Q: How did the “Concentration of nitrite nitrogen” value (Nitrobacter spp.; 0.10 ppm, week 0) turn out when `CC[C@@]1([C@@H]2O[C@@H]([C@H]3O[C@@](O)(CO)[C@H](C)C[C@@H]3C)C[C@@H]2C)CC[C@H]([C@]2(C)CC[C@]3(C[C@H](O)[C@@H](C)[C@@H]([C@@H](C)[C@@H](OC)[C@H](C)C(=O)O)O3)O2)O1` [Monensin sodium salt, Monensin] was run?
A: Its value is 9 ppm.

Q: What about the “Concentration of nitrite nitrogen” value (Nitrobacter spp.; 0.10 ppm, week 1) of the same molecule?
A: Its value is -4 ppm.

Q: And the “Concentration of nitrite nitrogen” value (Nitrobacter spp.; 0.10 ppm, week 2)?
A: The value was 4 ppm.

Q: What about the “Concentration of nitrite nitrogen” value (Nitrobacter spp.; 0.10 ppm, week 4) of the same molecule?
A: The value was 11 ppm.

Q: And the “Concentration of nitrite nitrogen” value (Nitrobacter spp.; 0.10 ppm, week 7)?
A: The value was 7 ppm.

Q: And the “Concentration of nitrite nitrogen” value (Nitrobacter spp.; 0.10 ppm, week 9)?
A: The value was 16 ppm.

Q: And the “Concentration of nitrite nitrogen” value (Nitrobacter spp.; 0.10 ppm, week 12)?
A: Its value is 18 ppm.

Q: And the “Concentration of nitrite nitrogen” value (Nitrobacter spp.; 0.10 ppm, week 16)?
A: The value was 7 ppm.

Q: What about the “Concentration of nitrite nitrogen” value (Nitrobacter spp.; 0.10 ppm, week 20) of the same molecule?
A: The value was 11 ppm.

Q: What about the “Concentration of nitrite nitrogen” value (Nitrobacter spp.; 0.25 ppm, week 0) of the same molecule?
A: The value was 6 ppm.

Q: And the “Concentration of nitrite nitrogen” value (Nitrobacter spp.; 0.25 ppm, week 1)?
A: The value was 3 ppm.

Q: And the “Concentration of nitrite nitrogen” value (Nitrobacter spp.; 0.25 ppm, week 2)?
A: The value was 6 ppm.

Q: What about the “Concentration of nitrite nitrogen” value (Nitrobacter spp.; 0.25 ppm, week 4) of the same molecule?
A: Its value is 7 ppm.

Q: And the “Concentration of nitrite nitrogen” value (Nitrobacter spp.; 0.25 ppm, week 7)?
A: The value was -4 ppm.

Q: And the “Concentration of nitrite nitrogen” value (Nitrobacter spp.; 0.25 ppm, week 9)?
A: The value was 17 ppm.

Q: What about the “Concentration of nitrite nitrogen” value (Nitrobacter spp.; 0.25 ppm, week 12) of the same molecule?
A: Its value is 30 ppm.

Q: And the “Concentration of nitrite nitrogen” value (Nitrobacter spp.; 0.25 ppm, week 16)?
A: The value was 3 ppm.

Q: What about the “Concentration of nitrite nitrogen” value (Nitrobacter spp.; 0.25 ppm, week 20) of the same molecule?
A: The value was 90 ppm.

Q: And the “Concentration of nitrite nitrogen” value (Nitrobacter spp.; 0.50 ppm, week 0)?
A: Its value is 6 ppm.

Q: What about the “Concentration of nitrite nitrogen” value (Nitrobacter spp.; 0.50 ppm, week 1) of the same molecule?
A: The value was 5 ppm.

Q: What about the “Concentration of nitrite nitrogen” value (Nitrobacter spp.; 0.50 ppm, week 2) of the same molecule?
A: The value was 6 ppm.

Q: What about the “Concentration of nitrite nitrogen” value (Nitrobacter spp.; 0.50 ppm, week 4) of the same molecule?
A: Its value is 0 ppm.

Q: What about the “Concentration of nitrite nitrogen” value (Nitrobacter spp.; 0.50 ppm, week 7) of the same molecule?
A: The value was 2 ppm.

Q: What about the “Concentration of nitrite nitrogen” value (Nitrobacter spp.; 0.50 ppm, week 9) of the same molecule?
A: The value was -7 ppm.

Q: And the “Concentration of nitrite nitrogen” value (Nitrobacter spp.; 0.50 ppm, week 12)?
A: Its value is 4 ppm.

Q: And the “Concentration of nitrite nitrogen” value (Nitrobacter spp.; 0.50 ppm, week 16)?
A: Its value is 2 ppm.

Q: What about the “Concentration of nitrite nitrogen” value (Nitrobacter spp.; 0.50 ppm, week 20) of the same molecule?
A: The value was 22 ppm.

Q: What about the “Concentration of nitrate nitrogen” value (Nitrosomonas spp.; 0.10 ppm, week 0) of the same molecule?
A: Its value is 18 PPM.

Q: And the “Concentration of nitrate nitrogen” value (Nitrosomonas spp.; 0.10 ppm, week 1)?
A: The value was 17 PPM.

Q: And the “Recovery of Ammonium Nitrogen” value (Nitrosomonas spp.; 0.10 ppm, week 1)?
A: The value was 175 PPM.

Q: And the “Concentration of nitrate nitrogen” value (Nitrosomonas spp.; 0.10 ppm, week 2)?
A: The value was 17 PPM.

Q: What about the “Recovery of Ammonium Nitrogen” value (Nitrosomonas spp.; 0.10 ppm, week 2) of the same molecule?
A: The value was 175 PPM.

Q: And the “Concentration of nitrate nitrogen” value (Nitrosomonas spp.; 0.10 ppm, week 4)?
A: The value was 45 PPM.

Q: And the “Recovery of Ammonium Nitrogen” value (Nitrosomonas spp.; 0.10 ppm, week 4)?
A: Its value is 155 PPM.

Q: And the “Concentration of nitrate nitrogen” value (Nitrosomonas spp.; 0.10 ppm, week 7)?
A: The value was 199 PPM.

Q: And the “Recovery of Ammonium Nitrogen” value (Nitrosomonas spp.; 0.10 ppm, week 7)?
A: The value was 17 PPM.

Q: And the “Concentration of nitrate nitrogen” value (Nitrosomonas spp.; 0.10 ppm, week 9)?
A: Its value is 220 PPM.

Q: What about the “Recovery of Ammonium Nitrogen” value (Nitrosomonas spp.; 0.10 ppm, week 9) of the same molecule?
A: Its value is 3 PPM.

Q: What about the “Concentration of nitrate nitrogen” value (Nitrosomonas spp.; 0.10 ppm, week 12) of the same molecule?
A: The value was 206 PPM.

Q: And the “Recovery of Ammonium Nitrogen” value (Nitrosomonas spp.; 0.10 ppm, week 12)?
A: The value was 2 PPM.

Q: What about the “Concentration of nitrate nitrogen” value (Nitrosomonas spp.; 0.10 ppm, week 16) of the same molecule?
A: Its value is 213 PPM.

Q: What about the “Recovery of Ammonium Nitrogen” value (Nitrosomonas spp.; 0.10 ppm, week 16) of the same molecule?
A: Its value is 5 PPM.

Q: And the “Specific inhibition of nitrification through activity against Nitrosomonas spp., in words” value (Nitrosomonas spp.; 0.1 to 0.5 ppm)?
A: The value was “appear to specifically inhibit nitrification through activity against Nitrosomonas spp”.

Q: And the “Concentration of nitrate nitrogen” value (Nitrosomonas spp.; 0.25 ppm, week 0)?
A: Its value is 19 PPM.

Q: And the “Concentration of nitrate nitrogen” value (Nitrosomonas spp.; 0.25 ppm, week 1)?
A: Its value is 22 PPM.

Q: And the “Recovery of Ammonium Nitrogen” value (Nitrosomonas spp.; 0.25 ppm, week 1)?
A: Its value is 179 PPM.

Q: What about the “Concentration of nitrate nitrogen” value (Nitrosomonas spp.; 0.25 ppm, week 2) of the same molecule?
A: The value was 21 PPM.

Q: And the “Concentration of nitrate nitrogen” value (Nitrosomonas spp.; 0.25 ppm, week 4)?
A: Its value is 23 PPM.

Q: And the “Concentration of nitrate nitrogen” value (Nitrosomonas spp.; 0.25 ppm, week 7)?
A: The value was 28 PPM.

Q: What about the “Concentration of nitrate nitrogen” value (Nitrosomonas spp.; 0.25 ppm, week 9) of the same molecule?
A: Its value is 54 PPM.

Q: And the “Recovery of Ammonium Nitrogen” value (Nitrosomonas spp.; 0.25 ppm, week 9)?
A: Its value is 157 PPM.

Q: What about the “Concentration of nitrate nitrogen” value (Nitrosomonas spp.; 0.25 ppm, week 12) of the same molecule?
A: The value was 70 PPM.

Q: What about the “Recovery of Ammonium Nitrogen” value (Nitrosomonas spp.; 0.25 ppm, week 12) of the same molecule?
A: Its value is 124 PPM.

Q: And the “Concentration of nitrate nitrogen” value (Nitrosomonas spp.; 0.25 ppm, week 16)?
A: The value was 158 PPM.

Q: And the “Recovery of Ammonium Nitrogen” value (Nitrosomonas spp.; 0.25 ppm, week 16)?
A: The value was 74 PPM.

Q: What about the “Concentration of nitrate nitrogen” value (Nitrosomonas spp.; 0.25 ppm, week 20) of the same molecule?
A: Its value is 121 PPM.

Q: And the “Recovery of Ammonium Nitrogen” value (Nitrosomonas spp.; 0.25 ppm, week 20)?
A: The value was 21 PPM.

Q: What about the “Concentration of nitrate nitrogen” value (Nitrosomonas spp.; 0.50 ppm, week 0) of the same molecule?
A: The value was 18 PPM.

Q: What about the “Concentration of nitrate nitrogen” value (Nitrosomonas spp.; 0.50 ppm, week 1) of the same molecule?
A: Its value is 18 PPM.

Q: And the “Recovery of Ammonium Nitrogen” value (Nitrosomonas spp.; 0.50 ppm, week 1)?
A: The value was 176 PPM.

Q: What about the “Concentration of nitrate nitrogen” value (Nitrosomonas spp.; 0.50 ppm, week 2) of the same molecule?
A: Its value is 21 PPM.

Q: And the “Concentration of nitrate nitrogen” value (Nitrosomonas spp.; 0.50 ppm, week 4)?
A: Its value is 22 PPM.

Q: What about the “Concentration of nitrate nitrogen” value (Nitrosomonas spp.; 0.50 ppm, week 7) of the same molecule?
A: Its value is 23 PPM.

Q: And the “Concentration of nitrate nitrogen” value (Nitrosomonas spp.; 0.50 ppm, week 9)?
A: Its value is 19 PPM.

Q: And the “Concentration of nitrate nitrogen” value (Nitrosomonas spp.; 0.50 ppm, week 12)?
A: Its value is 22 PPM.

Q: And the “Concentration of nitrate nitrogen” value (Nitrosomonas spp.; 0.50 ppm, week 16)?
A: The value was 121 PPM.

Q: And the “Recovery of Ammonium Nitrogen” value (Nitrosomonas spp.; 0.50 ppm, week 16)?
A: The value was 110 PPM.

Q: What about the “Concentration of nitrate nitrogen” value (Nitrosomonas spp.; 0.50 ppm, week 20) of the same molecule?
A: Its value is 72 PPM.

Q: What about the “Recovery of Ammonium Nitrogen” value (Nitrosomonas spp.; 0.50 ppm, week 20) of the same molecule?
A: The value was 143 PPM.

Reference: patent US4746349A, “Method and compositions for suppressing the nitrification of ammonium in plant growth medium” (American Cyanamid Company, priority 1986, dated 1988)
